Results taken from PubChem BioAssay AID248 (DTP/NCI, 2004).
Toxic doses and inconclusive results are not listed.

Tested on: L1210 leukemia ip in BDF1 mice, survival T/C
Assay: NCI In Vivo Anticancer Drug Screen. Data for tumor model L1210 Leukemia (intraperitoneal) in B6D2F1 (BDF1) mice
Details: endpoint: mean survival time, higher = longer survival
Summary of the method: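 Mice bearing the transplanted tumor received compound or vehicle. Survival of the treated group was divided by that of the vehicle-treated control group to give the ratio.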

[1] = dose: 100.0 mg/kg/injection, schedule: Q04DX003 (ip), vehicle: saline with Tween-80
[2] = dose: 100.0 mg/kg/injection, schedule: Q01DX009 (ip), vehicle: saline with Tween-80
[3] = dose: 200.0 mg/kg/injection, schedule: Q01DX009 (ip), vehicle: saline with Tween-80

Q: What does the source list for CNCCCN1c2ccccc2CCc2ccccc21?
A: T/C (dose: 3.12 mg/kg/injection, schedule: Q01DX009 (ip), vehicle: saline): 123 % of control; T/C (dose: 5.0 mg/kg/injection, schedule: Q01DX001 (ip), vehicle: saline): 105 % of control; T/C (dose: 6.25 mg/kg/injection, schedule: Q01DX009 (ip), vehicle: saline): 115 % of control; T/C (dose: 10.0 mg/kg/injection, schedule: Q01DX001 (ip), vehicle: saline): 100 % of control; T/C (dose: 12.5 mg/kg/injection, schedule: Q01DX009 (ip), vehicle: saline): 115 % of control; T/C (dose: 20.0 mg/kg/injection, schedule: Q01DX001 (ip), vehicle: saline): 111 % of control; T/C (dose: 25.0 mg/kg/injection, schedule: Q01DX009 (ip), vehicle: saline): 110 % of control; T/C (dose: 25.0 mg/kg/injection, schedule: Q04DX003 (ip), vehicle: saline): 101 % of control; T/C (dose: 40.0 mg/kg/injection, schedule: Q01DX001 (ip), vehicle: saline): 95 % of control; T/C (dose: 50.0 mg/kg/injection, schedule: Q01DX009 (ip), vehicle: saline): 106 % of control; T/C (dose: 50.0 mg/kg/injection, schedule: Q04DX003 (ip), vehicle: saline): 97 % of control; T/C (dose: 80.0 mg/kg/injection, schedule: Q01DX001 (ip), vehicle: saline): 92 % of control

Q: What does the source list for CCCCCCCCCCCCCCn1cnc2c(=S)nc[nH]c21?
A: T/C (dose: 12.5 mg/kg/injection, schedule: Q01DX005 (ip), vehicle: other): 101 % of control; T/C (dose: 25.0 mg/kg/injection, schedule: Q01DX005 (ip), vehicle: other): 101 % of control; T/C (dose: 50.0 mg/kg/injection, schedule: Q01DX005 (ip), vehicle: other): 96 % of control; T/C (dose: 100.0 mg/kg/injection, schedule: Q01DX005 (ip), vehicle: other): 96 % of control; T/C (dose: 200.0 mg/kg/injection, schedule: Q01DX005 (ip), vehicle: other): 95 % of control

Q: With O=S(=O)(Cc1ccccc1)N1CCCCC1 as the compound, how does the T/C (dose: 100.0 mg/kg/injection, schedule: Q04DX002 (ip), vehicle: Klucel (hydroxypropylcellulose) (HPC)) read?
A: 99 % of control

Q: And the T/C (dose: 200.0 mg/kg/injection, schedule: Q04DX002 (ip), vehicle: Klucel (hydroxypropylcellulose) (HPC))?
A: 99 % of control

Q: How did the T/C (dose: 20.0 mg/kg/injection, schedule: Q04DX003 (ip), vehicle: saline with Tween-80) turn out when FCCSc1ncnc2nc[nH]c12 was run?
A: 113 % of control

Q: And the T/C (dose: 29.5 mg/kg/injection, schedule: Q04DX003 (ip), vehicle: saline with Tween-80)?
A: 116 % of control

Q: And the T/C [1]?
A: 159 % of control

Q: What does the source list for C#CCOC(=O)Nc1cccc(Cl)c1?
A: T/C (dose: 100.0 mg/kg/injection, schedule: Q01DX009 (ip), vehicle: Klucel (hydroxypropylcellulose) (HPC)): 95 % of control; T/C (dose: 100.0 mg/kg/injection, schedule: Q04DX003 (ip), vehicle: Klucel (hydroxypropylcellulose) (HPC)): 97 % of control; T/C (dose: 200.0 mg/kg/injection, schedule: Q01DX009 (ip), vehicle: Klucel (hydroxypropylcellulose) (HPC)): 97 % of control; T/C (dose: 200.0 mg/kg/injection, schedule: Q04DX003 (ip), vehicle: Klucel (hydroxypropylcellulose) (HPC)): 106 % of control; T/C (dose: 400.0 mg/kg/injection, schedule: Q01DX009 (ip), vehicle: Klucel (hydroxypropylcellulose) (HPC)): 95 % of control; T/C (dose: 400.0 mg/kg/injection, schedule: Q04DX003 (ip), vehicle: Klucel (hydroxypropylcellulose) (HPC)): 90 % of control

Q: For CCCCCCCCc1ccccc1, which T/C (dose: 100.0 mg/kg/injection, schedule: Q04DX002 (ip), vehicle: saline) is on record?
A: 99 % of control

Q: What about the T/C (dose: 200.0 mg/kg/injection, schedule: Q04DX002 (ip), vehicle: saline) of the same compound?
A: 96 % of control

Q: And the T/C (dose: 400.0 mg/kg/injection, schedule: Q04DX002 (ip), vehicle: saline)?
A: 99 % of control

Q: For O=C(N/N=C/c1ccccn1)c1ccc(Cl)cc1, which T/C (dose: 50.0 mg/kg/injection, schedule: Q01DX009 (ip), vehicle: saline with Tween-80) is on record?
A: 104 % of control

Q: And the T/C [2]?
A: 86 % of control

Q: And the T/C [3]?
A: 107 % of control

Q: How did the T/C [2] turn out when COP(=NC(C)=O)(OC)OC was run?
A: 101 % of control

Q: And the T/C [1]?
A: 97 % of control

Q: And the T/C [3]?
A: 101 % of control

Q: What about the T/C (dose: 200.0 mg/kg/injection, schedule: Q04DX003 (ip), vehicle: saline with Tween-80) of the same compound?
A: 104 % of control

Q: And the T/C (dose: 400.0 mg/kg/injection, schedule: Q01DX009 (ip), vehicle: saline with Tween-80)?
A: 102 % of control

Q: What about the T/C (dose: 400.0 mg/kg/injection, schedule: Q04DX003 (ip), vehicle: saline with Tween-80) of the same compound?
A: 106 % of control

Q: Which T/C (dose: 100.0 mg/kg/injection, schedule: Q03DX002 (ip), vehicle: saline with Tween-80) does the source give for CC(Cl)(S(=O)c1ccccc1)C1(O)CCCCC1 (centres undefined) here?
A: 113 % of control

Q: And the T/C (dose: 200.0 mg/kg/injection, schedule: Q03DX002 (ip), vehicle: saline with Tween-80)?
A: 102 % of control

Q: What about the T/C (dose: 400.0 mg/kg/injection, schedule: Q03DX002 (ip), vehicle: saline with Tween-80) of the same compound?
A: 105 % of control

Q: How did the T/C (dose: 100.0 mg/kg/injection, schedule: Q04DX003 (ip), vehicle: saline) turn out when CC(C)=CC[N+]12CN3CN(CN(C3)C1)C2 was run?
A: 97 % of control

Q: And the T/C (dose: 200.0 mg/kg/injection, schedule: Q04DX003 (ip), vehicle: saline)?
A: 103 % of control

Q: And the T/C (dose: 400.0 mg/kg/injection, schedule: Q04DX003 (ip), vehicle: saline)?
A: 110 % of control

Q: With O=C(NC(=S)c1cccc2ccccc12)Nc1ccc(Cl)cc1 as the compound, how does the T/C (dose: 100.0 mg/kg/injection, schedule: Q04DX002 (ip), vehicle: saline with Tween-80) read?
A: 97 % of control

Q: What about the T/C (dose: 200.0 mg/kg/injection, schedule: Q04DX002 (ip), vehicle: saline with Tween-80) of the same compound?
A: 89 % of control

Q: What about the T/C (dose: 400.0 mg/kg/injection, schedule: Q04DX002 (ip), vehicle: saline with Tween-80) of the same compound?
A: 89 % of control
